Reference: patent US6545152B1, “R-isomers of nonnucleoside inhibitors” (Parker Hughes Institute, priority 2000, dated 2003)
Where “and” joins values, the source holds several entries; their conditions need not be identical. Equal entries are not always repeated. Where two headings read alike, the source gives them in different places.

What was measured:
[1] = tested on: HIV-1 strain HTLVIIIB; assay: p24 antigen assay of HIV-1 replication in human PBMC; assay type: cell-based; conditions: read-out: IC50 HTLVIIIB
Description: The HIV-1 strain HTLVIIIB (kindly provided by Dr. Neal T. Wetherall, VIROMED Laboratories, Inc.), was propagated in CCRF-CEM cells, and used in in vitro assays of the anti-HIV-1 activity of the synthesized compounds of the invention. Cell-free supernatants of HTLVIIIB-infected CCRF-CEM cells were harvested, dispensed into 1 ml aliquots, and frozen at −70° C.
The incubated cells were then exposed to HIV-1 at a multiplicity of infection (MOI) of 0.1 during a one-hour adsorption period at 37° C. in a humidified 5% CO2 atmosphere. Subsequently, infected cells were cultured in 96-well microtiter plates (100 μl/well; 2×10^6 cells/ml) in the presence of test compounds, including appropriate controls. Aliquots of culture supernatants were removed from the wells on the seventh day after infection for p24 antigen assays. […] Ag.
(§1) The applied p24 enzyme immunoassay (EIA) was the unmodified kinetic assay commercially available from Coulter Corporation/Immunotech, Inc. (Westbrooke, Me.). In the assay, a murine monoclonal antibody against HIV core protein is coated onto microwell strips. Antigen (HIV core protein) present in the test culture supernatant samples binds the antibody and the bound antibody-antigen complex is quantitated. Percent viral inhibition was calculated by comparing the p24 values from the test substance-treated infected cells with p24 values from untreated infected cells (i.e., virus controls).

[2] = tested on: multidrug resistant HIV-1 strain RT-MDR (V106A, 74V, 41L, 215Y); assay: microbe, parasite or virus in culture; assay type: cell-based
[3] = tested on: NNI-resistant HIV-1 strain A17 (Y181C); assay: microbe, parasite or virus in culture; assay type: cell-based
Description: (§2) Normal human peripheral blood mononuclear cells (PBMNC) from HIV-negative donors were cultured 72 hours in RPMI 1640 supplemented with 20%(v/v) heat-inactivated fetal bovine serum (FBS), 3% interleukin-2, 2 mM L-glutamine, 25 mM HEPES, 2 g/L NaHCO3, 50 μg/ml gentamicin, and 4 μg/ml phytohemagglutinin prior to exposure to HIV-1. The incubated cells were then exposed to HIV-1 at a multiplicity of infection (MOI) of 0.1 during a one-hour adsorption period at 37° C. in a humidified 5% CO2 atmosphere. Subsequently, infected cells were cultured in 96-well microtiter plates (100 μl/well; 2×10^6 cells/ml) in the presence of test compounds, including appropriate controls. Aliquots of culture supernatants were removed from the wells on the seventh day after infection for p24 antigen assays. The methods used in the P24 assay were as previously described in Uckun, et al., Antimicrobial Agents and Chemotherapy, 1998, 42, 383; Zarling, et al., Nature, 1990, 347, 92-95; Erice, et al., Antimicrob. Ag. Chemother., 1993, 37, 835.
as §1

[4] = tested on: HIV-1 strain A17 variant (Y181C plus K103N); assay: microbe, parasite or virus in culture; assay type: cell-based
Description: as §2, §1

[5] = molecular target: T1, recombinant HIV-1 reverse transcriptase (rRT) (Human immunodeficiency virus type 1 group M subtype B, UniProt P04585); assay: Cell-free RT inhibition assay (Quan-T-RT, scintillation proximity); assay type: biochemical
T1 construct: recombinant HIV-1 reverse transcriptase (rRT)
Description: In addition, the activity of the test compounds to inhibit recombinant HIV-1 reverse transcriptase (rRT) activity was determined using the Quan-T-RT assay system (Amersham, Arlington Heights, Ill.), which utilizes the scintillation proximity assay principle. […] Data for both bioassays is reported as IC50 values.

[6] = Human immunodeficiency virus 1, PBMC, human PBMC, p24
[7] = Human immunodeficiency virus 1, H9, read-out: IC50 RT-MDR
[8] = Human immunodeficiency virus 1, read-out: IC50 A17
[9] = Human immunodeficiency virus 1, 168 h, read-out: IC50 A17 (second column; A17 variant)
[10] = Human immunodeficiency virus 1, read-out: IC50 A17 (second column; A17 variant)

CC(C)Nc1cccnc1N1CCN(C(=O)c2cc3cc(NS(C)(=O)=O)ccc3[nH]2)CC1 [Delavirdine, reference compound]
IC50 [1, 6]: 9 nM
IC50 [2, 7]: 400 nM
IC50 [3, 8]: 50000 nM
IC50 [4, 9]: > 100000 nM
IC50 [4, 10]: > 100000 nM

Fc1ccccc1CCNC(=S)Nc1ccc(Br)cn1 [HI-240, reference compound]
IC50 [5]: 600 nM
IC50 ([1]; human PBMC, p24): < 1 nM
IC50 ([2]; H9 cells, read-out: IC50 RT-MDR): 5 nM
IC50 ([3]; Y181C mutation, read-out: IC50 A17): 200 nM
IC50 ([4]; Y181C plus K103N mutations, read-out: IC50 A17 (second column; A17 variant)): 41000 nM

Cc1ccnc2c1NC(=O)c1cccnc1N2C1CC1 [Nevirapine, reference compound]
IC50 [1, 6]: 34 nM
IC50 [2, 7]: 5000 nM
IC50 [3, 8]: > 100000 nM
IC50 [4, 10]: > 100000 nM

C[C@@H](NC(=S)Nc1ccc(Br)cn1)C1CCCCC1 [PHI-509^R, N-[1-(1-(1R)-Cyclohexylethyl)]-N-[2-(5-bromopyridyl)] thiourea]
IC50 ([1]; human PBMC, p24, listed as PHI-509^S): > 1000 nM
IC50 ([1]; human PBMC, p24): 1 nM
IC50 [2, 7]: 200 nM
melting point: 176 to 177 °C
IC50 [3, 8]: 400 nM
IC50 [4, 9]: 10000 nM

CC(NC(=S)Nc1ccc(Cl)cn1)C1CCCCC1 (stereo not shown) [PHI-510^R]
IC50 [2, 7]: 60 nM
IC50 [3, 8]: 70 nM
IC50 [4, 10]: 8200 nM

C[C@@H](NC(=S)Nc1ccc(Br)cn1)c1ccccc1 [PHI-511^R]
IC50 ([1]; human PBMC, p24, listed as PHI-511^S): > 1000 nM
IC50 ([1]; human PBMC, p24): 10 nM
IC50 [2, 7]: 5 nM
times more active than delavirdine ([2]; RT-MDR): 80 times
times more active than nevirapine ([2]; RT-MDR): 1,000 times
times more active than trovirdine ([2]; RT-MDR): 4 times
melting point: 170 to 172 °C
times more active than HI-240 ([3]; A17): 20 times
times more active than delavirdine ([3]; A17): 5,000 times
times more active than nevirapine ([3]; A17): 10,000 times
times more active than trovirdine ([3]; A17): 50 times
IC50 [3, 8]: 10 nM
IC50 [4, 10]: 2700 nM

C[C@@H](NC(=S)Nc1ccc(Cl)cn1)c1ccccc1 [PHI-512^R]
IC50 [1, 6]: 10 nM
IC50 [2, 7]: 10 nM
melting point: 185 to 187.5 °C
IC50 [3, 8]: 200 nM
IC50 [4, 10]: 10200 nM

C[C@@H](NC(=S)Nc1nccs1)C1CCCCC1 [PHI-513^R, N-[1-(1-(1R)-Cyclobexyl)ethyl]-N′-[2-(thiazolyl)]thiourea]
IC50 [5]: 13000 nM and > 100000 nM
IC50 ([1]; human PBMC, p24, listed as PHI-513^S): > 1000 nM
IC50 ([1]; human PBMC, p24): 1 nM
IC50 [2, 7]: 5600 nM
melting point: 118 to 119 °C
IC50 [3, 8]: 900 nM
IC50 [4, 10]: 5800 nM

C[C@H](NC(=S)Nc1ccccn1)C1CCCCC1 [PHI-542]
IC50 [5]: > 100000 nM
IC50 [1, 6]: > 1000 nM

C[C@@H](NC(=S)Nc1ccccn1)C1CCCCC1 [PHI-543]
IC50 [5]: > 100000 nM
IC50 [1, 6]: > 1000 nM
melting point: 125 to 127 °C

S=C(NCCc1ccccn1)Nc1ccc(Br)cn1 [Trovirdine, reference compound]
IC50 ([1]; Human immunodeficiency virus 1, PBMC): 7 nM
IC50 [2, 7]: 20 nM
IC50 [3, 8]: 500 nM
IC50 [4, 9]: > 100000 nM
IC50 [4, 10]: > 100000 nM
